Here are results for 29 compounds from patent US9212151B2, “Heterocyclic compounds useful for kinase inhibition” (Amitech Therapeutic Solutions, Inc., priority 2010, dated 2015).

Molecules are shown by their SMILES.

A short description of this data set: MTT cell viability assay, compounds at 5, 1 and 0.2 μM, 48 hours. It counts as cell-based. The conditions noted are these: human, A549 tumor cells. The method, then:
MTT assay is used to determine cell proliferation, percent of viable cells, and cytotoxicity. MTT (3-[4,5-dimethylthiazol-2-yl]2,5-diphenyltetrazolium bromide) is a yellow dye, which can be absorbed by the living cells and be reduced to purplish blue formazan crystals by succinate tetrazolium reductase in mitochondria. Formazan formation can therefore be used to assess and determine the survival rate of cells.
Tumor cells (A549) were plated at 2500 cells/well of a 96-well plate in complete growth medium (DMEM+10% FBS, antibiotic/antimycotic, fungizone, L-glutamine, sodium pyruvate, and non-essential amino acids). The cells were allowed to grow overnight. After cell proliferation, the cells were washed and re-suspended in fresh culture medium and placed in 96 well plates.
To each of the 96 well plates containing A549 and a control, 5, 1, and 0.2 μM of the exemplary compounds 1-200 were add. The 96 well plates were incubated for 48 hours. Cell viability was measured by adding MTT (Sigma) at 5 mg/ml for 4 h to the cells and then removing the medium and resuspending each well in 50 μl DMSO to solubilize the crystals. The 96-well plates were read on a plate-scanning spectrophotometer (BioTek) at an absorbance of […]. The survival rate of cells was calculated based on the measurement of absorption at the 570 nm wavelength by enzyme immunoassay analyzer.
Background: Formazan colour is commonly taken as a measure of viable cells.

As for `COc1nc(Oc2ccc(-c3nnc(Nc4cccc(C(F)(F)F)c4)[nH]3)cc2)c2cc[nH]c2n1` [Compound 75], the viability (usually a per cent measure of how many cells are alive, often set against a control) at 48 h, 0.2 µM (0.2 μM) was more than 70%. The viability at 48 h, 1 µM (1 μM) is more than 70%. The same compound came in with a viability at 48 h, 5 µM (5 μM) of more than 70%.
`FC(F)(F)c1cccc(Nc2nnc(-c3ccc(Oc4ccnc(Cl)c4)cc3)[nH]2)c1` [Compound 6] came in with a viability at 48 h, 0.2 µM (0.2 μM) of more than 70%. This compound yielded a viability at 48 h, 1 µM (1 μM) of 50 to 70%. Under “5 μM”, this compound yielded a viability at 48 h, 5 µM of less than 50%.
For `COc1ccc2c(Oc3cc(-c4nnc(Nc5cccc(C(F)(F)F)c5)[nH]4)ccc3C)ccnc2c1` [Compound 197], where the note is “0.2 μM compound”, the viability at 48 h, 0.2 µM is more than 70%. The viability at 48 h, 1 µM (1 μM compound) is more than 70%. The viability at 48 h, 5 µM (5 μM compound) is more than 70%.
For the compound `FC(F)(F)c1cccc(Nc2nnc(-c3ccc(Oc4cc(Cl)ccn4)cc3)[nH]2)c1` [Compound 5], where the note is “0.2 μM”, the viability at 48 h, 0.2 µM is more than 70%. Also, the viability at 48 h, 1 µM (1 μM) is more than 70%. Further, the viability at 48 h, 5 µM (5 μM) is more than 70%.
Compound `FC(F)(F)c1cccc(Nc2nnc(-c3ccc(Oc4ccncc4)c(Cl)c3)[nH]2)c1` [Compound 103] registered a viability at 48 h, 0.2 µM (0.2 μM) of more than 70%. This compound returned a viability at 48 h, 1 µM (1 μM) of more than 70%. This compound registered a viability at 48 h, 5 µM (5 μM) of 50 to 70%.
Under “0.2 μM”, `FC(F)(F)c1cccc(-c2nnc(Nc3ccc(Oc4cccnc4)cc3)[nH]2)c1` [Compound 174] had a viability at 48 h, 0.2 µM of more than 70%. Further, for the setting “1 μM”, the viability at 48 h, 1 µM is more than 70%. For the setting “5 μM”, this compound displayed a viability at 48 h, 5 µM of more than 70%.
In turn, `CSc1nc(N)cc(Oc2ccc(-c3nnc(Nc4cccc(C#N)c4)[nH]3)cc2)n1` [Compound 128] displayed a viability at 48 h, 0.2 µM (0.2 μM) of more than 70%. This compound showed a viability at 48 h, 1 µM (1 μM) of more than 70%. In addition, the viability at 48 h, 5 µM (5 μM) is more than 70%.
Consider `Nc1cc(Oc2ccc(-c3nnc(Nc4cccc(C(F)(F)F)c4)[nH]3)cc2)nc(SCCO)n1` [Compound 115], for which the viability at 48 h, 0.2 µM (0.2 μM) is more than 70%. The viability at 48 h, 1 µM (1 μM) is more than 70%. Under “5 μM”, this compound displayed a viability at 48 h, 5 µM of more than 70%.
Consider `FC(F)(F)c1cccc(Nc2nnc(-c3cccc(Oc4ccnc5[nH]ccc45)c3)[nH]2)c1` [Compound 85], for which the viability at 48 h, 0.2 µM (0.2 μM) is more than 70%. Where the note is “1 μM”, this compound gave a viability at 48 h, 1 µM of more than 70%. Under “5 μM”, the viability at 48 h, 5 µM was in the range of 50 to 70%.
As to `COc1ccc2c(Oc3ccc(-c4cnc(Nc5cccc(C(F)(F)F)c5)[nH]4)cc3)ccnc2c1` [Compound 200], where the note is “0.2 μM compound”, the viability at 48 h, 0.2 µM is more than 70%. The compound further had a viability at 48 h, 1 µM (1 μM compound) of more than 70%. This compound displayed a viability at 48 h, 5 µM (5 μM compound) of more than 70%.
The compound `Nc1cc(F)cc(Oc2ccc(-c3nnc(Nc4cccc(C(F)(F)F)c4)[nH]3)cc2)c1` [Compound 156] registered a viability at 48 h, 0.2 µM (0.2 μM) of more than 70%. This compound showed a viability at 48 h, 1 µM (1 μM) of more than 70%. Moreover, the viability at 48 h, 5 µM (5 μM) was in the range of 50 to 70%.
Compound `FC(F)(F)c1cccc(Nc2nnc(-c3cccc(Oc4cc(C(F)(F)F)nc5ccccc45)c3)[nH]2)c1` [Compound 169] yielded a viability at 48 h, 0.2 µM (0.2 μM) of more than 70%. The same compound showed a viability at 48 h, 1 µM (1 μM) of more than 70%. For the same compound, under “5 μM”, the viability at 48 h, 5 µM was more than 70%.
On to `CCOc1nc(N)cc(Oc2cccc(-c3nnc(Nc4cccc(C(F)(F)F)c4)[nH]3)c2)n1` [Compound 97], for which, where the note is “0.2 μM”, the viability at 48 h, 0.2 µM is more than 70%. The compound also yielded a viability at 48 h, 1 µM (1 μM) of more than 70%. The viability at 48 h, 5 µM (5 μM) was more than 70%.
Consider `COCCCNc1cc(Oc2ccc(-c3nnc(Nc4cccc(C(F)(F)F)c4)[nH]3)cc2)nc(SC)n1` [Compound 145], for which the viability at 48 h, 0.2 µM (0.2 μM) is more than 70%. The viability at 48 h, 1 µM (1 μM) is more than 70%. Besides, where the note is “5 μM”, the viability at 48 h, 5 µM was less than 50%.
In the case of `Nc1cc(Oc2cccc(-c3nnc(Nc4cccc(C(F)(F)F)c4)[nH]3)c2)ccn1` [Compound 18], the viability at 48 h, 0.2 µM (0.2 μM) lay within 50 to 70%. Also, the viability at 48 h, 1 µM (1 μM) is less than 50%. Under “5 μM”, this compound displayed a viability at 48 h, 5 µM of less than 50%.
As to `CSc1nc(N)cc(Oc2cccc(-c3nnc(Nc4ccc(F)c(C(F)(F)F)c4)[nH]3)c2)n1` [Compound 106], the viability at 48 h, 0.2 µM (0.2 μM) is more than 70%. The compound also yielded a viability at 48 h, 1 µM (1 μM) of more than 70%. For the same compound, the viability at 48 h, 5 µM (5 μM) was more than 70%.
On to `CSc1nc(N)cc(Oc2ccc(-c3nnc(Nc4cc(C(C)(C)C)nn4-c4cccc(C)c4)[nH]3)cc2)n1` [Compound 139], for which, where the note is “0.2 μM”, the viability at 48 h, 0.2 µM was more than 70%. Further, the viability at 48 h, 1 µM (1 μM) is more than 70%. In addition, the viability at 48 h, 5 µM (5 μM) was more than 70%.
Compound `CCCNc1cc(Oc2ccc(-c3nnc(Nc4cccc(C(F)(F)F)c4)[nH]3)cc2)nc(SC)n1` [Compound 144] returned a viability at 48 h, 0.2 µM (0.2 μM) of more than 70%. Moreover, the viability at 48 h, 1 µM (1 μM) was more than 70%. Further, the viability at 48 h, 5 µM (5 μM) was in the range of 50 to 70%.
`CSc1nc(N)cc(Oc2ccc(-c3nnc(Nc4cccc(C(F)(F)F)c4F)[nH]3)cc2)n1` [Compound 137]: the viability at 48 h, 0.2 µM (0.2 μM) was more than 70%. Further, where the note is “1 μM”, the viability at 48 h, 1 µM is less than 50%. Moreover, for the setting “5 μM”, the viability at 48 h, 5 µM is less than 50%.
Regarding `CSc1nc(N)cc(Oc2ccc(-c3nnc(Nc4cccc(C)c4C)[nH]3)cc2)n1` [Compound 126], the viability at 48 h, 0.2 µM (0.2 μM) was less than 50%. Where the note is “1 μM”, this compound showed a viability at 48 h, 1 µM of less than 50%. The compound further had a viability at 48 h, 5 µM (5 μM) of less than 50%.
In the case of `FC(F)(F)c1cccc(Nc2nnc(-c3ccc(Oc4ncnc5[nH]ccc45)cc3)[nH]2)c1` [Compound 10], where the note is “0.2 μM”, the viability at 48 h, 0.2 µM is more than 70%. The compound further had a viability at 48 h, 1 µM (1 μM) of more than 70%. The viability at 48 h, 5 µM (5 μM) was 50 to 70%.
`[2H]C([2H])([2H])Oc1cc(Oc2ccc(-c3nnc(Nc4cccc(C(F)(F)F)c4)[nH]3)cc2)nc(N)n1` [Compound 142] registered a viability at 48 h, 0.2 µM (0.2 μM) of more than 70%. Besides, the viability at 48 h, 1 µM (1 μM) was more than 70%. For the same compound, the viability at 48 h, 5 µM (5 μM) was more than 70%.
As to `CC(C)(C)Sc1cc(Oc2cccc(-c3nnc(Nc4cccc(C(F)(F)F)c4)[nH]3)c2)nc(N)n1` [Compound 151], the viability at 48 h, 0.2 µM (0.2 μM) was more than 70%. Also, the viability at 48 h, 1 µM (1 μM) is more than 70%. Also, for the setting “5 μM”, the viability at 48 h, 5 µM was more than 70%.
`COc1ccc2c(Oc3cccc(-c4nnc(Nc5cccc(C(F)(F)F)c5)s4)c3)ccnc2c1` [Compound 49] returned a viability at 48 h, 0.2 µM (0.2 μM) of more than 70%. The same compound had a viability at 48 h, 1 µM (1 μM) of more than 70%. In addition, the viability at 48 h, 5 µM (5 μM) lay in the range of 50 to 70%.
Compound `FC(F)(F)c1cccc(Nc2nnc(-c3cccc(Oc4ccncc4C(F)(F)F)c3)[nH]2)c1` [Compound 20] returned a viability at 48 h, 0.2 µM (0.2 μM) of more than 70%. Also, the viability at 48 h, 1 µM (1 μM) was more than 70%. This compound also showed a viability at 48 h, 5 µM (5 μM) of 50 to 70%.
As to `FC(F)(F)c1cccc(Nc2nnc(-c3cccc(Oc4ccnc5cc(OCc6ccccc6)ccc45)c3)[nH]2)c1` [Compound 193], the viability at 48 h, 0.2 µM (0.2 μM) was more than 70%. In addition, where the note is “1 μM”, the viability at 48 h, 1 µM is more than 70%. Where the note is “5 μM”, the viability at 48 h, 5 µM is more than 70%.
As for `Cc1cc(Oc2ccc(-c3nnc(Nc4cccc(C(F)(F)F)c4)[nH]3)cc2)ccn1` [Compound 74], the viability at 48 h, 0.2 µM (0.2 μM) was more than 70%. For the same compound, for the setting “1 μM”, the viability at 48 h, 1 µM is less than 50%. Further, the viability at 48 h, 5 µM (5 μM) is less than 50%.
Compound `FC(F)(F)c1cccc(Nc2nnc(-c3cccc(Oc4ccnc5cc(Cl)ccc45)c3)[nH]2)c1` [Compound 167] displayed a viability at 48 h, 0.2 µM (0.2 μM) of more than 70%. In addition, the viability at 48 h, 1 µM (1 μM) was more than 70%. Further, the viability at 48 h, 5 µM (5 μM) was more than 70%.
As to `FC(F)(F)c1cccc(Nc2nnc(-c3cccc(Oc4cncc5ccccc45)c3)[nH]2)c1` [Compound 164], for the setting “0.2 μM”, the viability at 48 h, 0.2 µM is more than 70%. Besides, the viability at 48 h, 1 µM (1 μM) was more than 70%. For the same compound, under “5 μM”, the viability at 48 h, 5 µM is 50 to 70%.
